test: Biochemical Assay: Test compounds were placed in a Greiner Bio-One (Monroe, N.C.) 1536-well black solid bottom assay plate. 200 millimolar (mM) Tris HCl, pH 7.4, 100 micromolar (μM) EDTA and 0.01% TWEEN-20, final concentration, was used as the assay buffer. The LDHA reagent was 2 nanomolar (nM) Human LDHA (Meridian Life Science, Inc., Memphis, Tenn.), final concentration, in assay buffer. The substrate reagent was 0.06 mM NADH and 0.2 mM sodium pyruvate, final concentration, in assay buffer. The resazurin/diaphorase coupling reagent was 0.037 mM resazurin and 0.133 milligrams per milliliter (mg/mL) diaphorase, final concentration, in assay buffer. The inhibition of LDHA activity was measured by fluorescence emission.

SMILES	IC50
CC1CC=C(c2cc(-c3nn(-c4nc(C(=O)O)cs4)c(CC4CC4)c3Cc3ccc([SH+](N)[O-])c(F)c3)ccc2F)CC1 (stereo not drawn)	< 100 nM
COC1CC=C(c2cc(-c3nn(-c4nc(C(=O)O)cs4)c(CC4CC4)c3Cc3ccc([SH+](N)[O-])c(F)c3)ccc2F)CC1 (stereo not drawn)	< 100 nM
COc1ccc(-c2cc(-c3nn(-c4nc(C(=O)O)cs4)c(CC4CC4)c3Cc3ccc([SH+](N)[O-])c(F)c3)ccc2F)cc1C (stereo not drawn)	< 100 nM
N[S+](=O)([O-])c1ccc(Cc2c(-c3ccc(F)c(-c4ncc[nH]4)c3)nn(-c3nc(C(=O)O)cs3)c2CC2CC2)cc1F	< 100 nM
N[SH+]([O-])c1ccc(Cc2c(-c3cccc(-c4ccc(C5CC5)c(F)c4)c3)nn(-c3nc(C(=O)O)cs3)c2CC2CC2)cc1F (stereo not drawn)	in the range around 29000 nM
Cc1ccc(C#Cc2cccc(-c3nn(-c4nc(C(=O)O)cs4)c(CCC4CC4)c3Cc3ccc([SH+](N)[O-])c(F)c3)c2)s1 (stereo not drawn)	< 100 nM
CC(C)(C)c1ccc(C#Cc2cc(-c3nn(-c4nc(C(=O)O)cs4)c(CC4CC4)c3Cc3ccc([SH+](N)[O-])c(F)c3)ccc2F)s1 (stereo not drawn)	in the range around 550 nM
N[SH+]([O-])c1ccc(Cc2c(-c3cccc(-c4ccc(Cl)c(F)c4)c3)nn(-c3nc(C(=O)O)cs3)c2CC2CC2)cc1F (stereo not drawn)	< 100 nM
Cc1ccc(C2CC2c2cccc(-c3nn(-c4nc(C(=O)O)cs4)c(CC4CC4)c3Cc3ccc([SH+](N)[O-])c(F)c3)c2)s1 (stereo not drawn)	< 100 nM
CC1CCCC=C1c1cc(-c2nn(-c3nc(C(=O)O)cs3)c(CC3CC3)c2Cc2ccc([SH+](N)[O-])c(F)c2)ccc1F (stereo not drawn)	< 100 nM
CC(C)c1ccc(-c2cccc(-c3nn(-c4nc(C(=O)O)cs4)c(CC4CC4)c3Cc3ccc([SH+](N)[O-])c(F)c3)c2)cc1 (stereo not drawn)	< 100 nM
Cc1ncc(-c2cc(-c3nn(-c4nc(C(=O)O)cs4)c(CC4CC4)c3Cc3ccc([SH+](N)[O-])c(F)c3)ccc2F)[nH]1 (stereo not drawn)	< 100 nM
N[SH+]([O-])c1ccc(Cc2c(-c3cccc(C#Cc4ccc(C5CC5)s4)c3)nn(-c3nc(C(=O)O)cs3)c2CC2CC2)cc1F (stereo not drawn)	in the range around 550 nM
N[S+](=O)([O-])c1ccc(Cc2c(-c3ccc(F)c(C4=CCCCC4)c3)nn(-c3nc(C(=O)O)cs3)c2CC2CC2)cc1F	< 100 nM
N[S+](=O)([O-])c1ccc(Cc2c(-c3ccc(F)c(C4=CCC5(CC4)CC5)c3)nn(-c3nc(C(=O)O)cs3)c2CC2CC2)cc1F	< 100 nM
Cc1ccc(C#Cc2cccc(-c3nn(-c4nc(C(=O)O)cs4)c(CC4(C)CC4)c3Cc3ccc([SH+](N)[O-])c(F)c3)c2)s1 (stereo not drawn)	< 100 nM
N[S+](=O)([O-])c1ccc(Cc2c(-c3ccc(F)c(-c4cccc(Cl)c4)c3)nn(-c3nc(C(=O)O)cs3)c2CC2CC2)cc1F	< 100 nM
CC(C)N1CC2(CN(c3cc(-c4nn(-c5nc(C(=O)O)cs5)c(CC5CC5)c4Cc4ccc([SH+](N)[O-])c(F)c4)ccc3F)C2)C1 (stereo not drawn)	< 100 nM
CC(=O)c1cc(-c2nn(-c3nc(C(=O)O)cs3)c(CC3CC3)c2Cc2ccc([SH+](N)[O-])c(F)c2)ccc1F (stereo not drawn)	< 100 nM
N[S+](=O)([O-])c1ccc(Cc2c(-c3ccc(F)c(-c4ccc5c(c4)CCCC5)c3)nn(-c3nc(C(=O)O)cs3)c2CC2CC2)cc1F	< 100 nM
N[S+](=O)([O-])c1ccc(Cc2c(-c3ccc(F)c(-c4cc(F)cc(F)c4)c3)nn(-c3nc(C(=O)O)cs3)c2CC2CC2)cc1F	< 100 nM

SMILES	IC50
Cc1ccsc1C#Cc1cccc(-c2nn(-c3nc(C(=O)O)cs3)c(CC3CC3)c2Cc2ccc([SH+](N)[O-])c(F)c2)c1 (stereo not drawn)	< 100 nM
N[SH+]([O-])c1ccc(Cc2c(-c3cccc(C#Cc4ccc(C(F)F)s4)c3)nn(-c3nc(C(=O)O)cs3)c2CC2CC2)cc1F (stereo not drawn)	< 100 nM
Cc1ccc(-c2cc(-c3nn(-c4nc(C(=O)O)cs4)c(CC4CC4)c3Cc3ccc([SH+](N)[O-])c(F)c3)ccc2F)cc1F (stereo not drawn)	< 100 nM
N[S+](=O)([O-])c1ccc(Cc2c(-c3ccc(F)c(-c4ccc(Cl)c(F)c4)c3)nn(-c3nc(C(=O)O)cs3)c2CC2CC2)cc1F	< 100 nM
N[SH+]([O-])c1ccc(Cc2c(-c3ccc(F)c(NC(=O)c4ccccc4)c3)nn(-c3nc(C(=O)O)cs3)c2CC2CC2)cc1F (stereo not drawn)	< 100 nM
N[S+](=O)([O-])c1ccc(Cc2c(-c3ccc(F)c(-c4ccc(C(F)(F)F)cc4)c3)nn(-c3nc(C(=O)O)cs3)c2CC2CC2)cc1F	< 100 nM
COc1ccc(-c2cccc(-c3nn(-c4nc(C(=O)O)cs4)c(CC4CC4)c3Cc3ccc([SH+](N)[O-])c(F)c3)c2)cc1Cl (stereo not drawn)	in the range around 550 nM
Cc1ccc(C#Cc2cccc(-c3nn(-c4nc(C(=O)O)cs4)c(C4CC45CC5)c3Cc3ccc([SH+](N)[O-])c(F)c3)c2)s1 (stereo not drawn)	< 100 nM
Cc1cc(C)c(C#Cc2cccc(-c3nn(-c4nc(C(=O)O)cs4)c(CC4CC4)c3Cc3ccc([SH+](N)[O-])c(F)c3)c2)s1 (stereo not drawn)	< 100 nM
Cc1ccc(C#Cc2cccc(-c3nn(-c4nc(C(=O)O)cs4)c(CC4CC4)c3Cc3ccc([SH+](N)[O-])c(F)c3)c2)o1 (stereo not drawn)	< 100 nM
N[S+](=O)([O-])c1ccc(Cc2c(-c3ccc(F)c(-c4ccc5c(c4)CCC5)c3)nn(-c3nc(C(=O)O)cs3)c2CC2CC2)cc1F	< 100 nM
Cc1ncc(C#Cc2cc(-c3nn(-c4nc(C(=O)O)cs4)c(CC4CC4)c3Cc3ccc([SH+](N)[O-])c(F)c3)ccc2F)s1 (stereo not drawn)	< 100 nM
N[SH+]([O-])c1ccc(Cc2c(-c3cccc(-c4ccc(Cl)cc4)c3)nn(-c3nc(C(=O)O)cs3)c2CC2CC2)cc1F (stereo not drawn)	< 100 nM
CC1(C)CC=C(c2cc(-c3nn(-c4nc(C(=O)O)cs4)c(CC4CC4)c3Cc3ccc([SH+](N)[O-])c(F)c3)ccc2F)CC1 (stereo not drawn)	< 100 nM
N[SH+]([O-])c1ccc(Cc2c(-c3ccc(F)c(C4=CCCO4)c3)nn(-c3nc(C(=O)O)cs3)c2CC2CC2)cc1F (stereo not drawn)	< 100 nM
Cc1cnc(C#Cc2cc(-c3nn(-c4nc(C(=O)O)cs4)c(CC4CC4)c3Cc3ccc([SH+](N)[O-])c(F)c3)ccc2F)s1 (stereo not drawn)	< 100 nM
Cc1ccc(-c2cccc(-c3nn(-c4nc(C(=O)O)cs4)c(CC4CC4)c3Cc3ccc([SH+](N)[O-])c(F)c3)c2)cc1F (stereo not drawn)	< 100 nM
COc1ccc(-c2cccc(-c3nn(-c4nc(C(=O)O)cs4)c(CC4CC4)c3Cc3ccc([SH+](N)[O-])c(F)c3)c2)cc1C (stereo not drawn)	< 100 nM
COc1cc(OC)cc(-c2cc(-c3nn(-c4nc(C(=O)O)cs4)c(CC4CC4)c3Cc3ccc([SH+](N)[O-])c(F)c3)ccc2F)c1 (stereo not drawn)	< 100 nM
Cc1cc(-c2cccc(-c3nn(-c4nc(C(=O)O)cs4)c(CC4CC4)c3Cc3ccc([SH+](N)[O-])c(F)c3)c2)ccc1Cl (stereo not drawn)	in the range around 29000 nM
N[S+](=O)([O-])c1ccc(Cc2c(-c3cccc(-c4ccc5c(c4)CCCC5)c3)nn(-c3nc(C(=O)O)cs3)c2CC2CC2)cc1F	in the range around 550 nM

SMILES	IC50
Cc1ccc(C#Cc2cccc(-c3nn(-c4nc(C(N)=O)cs4)c(CC4CC4)c3Cc3ccc([SH+](N)[O-])c(F)c3)c2)s1 (stereo not drawn)	in the range around 29000 nM
N[S+](=O)([O-])c1ccc(Cc2c(-c3ccc(F)c(-c4ccc(F)c(F)c4)c3)nn(-c3nc(C(=O)O)cs3)c2CC2CC2)cc1F	< 100 nM
N[S+](=O)([O-])c1ccc(Cc2c(-c3ccc(F)c(C4=Cc5ccccc5C4)c3)nn(-c3nc(C(=O)O)cs3)c2CC2CC2)cc1F	< 100 nM
N[S+](=O)([O-])c1ccc(Cc2c(-c3ccc(F)c(-c4nc5ccccc5[nH]4)c3)nn(-c3nc(C(=O)O)cs3)c2CC2CC2)cc1F	< 100 nM
N[S+](=O)([O-])c1ccc(Cc2c(-c3ccc(F)c(C4=CCC(F)(F)CC4)c3)nn(-c3nc(C(=O)O)cs3)c2CC2CC2)cc1F	< 100 nM
CC(C)c1ccc(C#Cc2cccc(-c3nn(-c4nc(C(=O)O)cs4)c(CC4CC4)c3Cc3ccc([SH+](N)[O-])c(F)c3)c2)s1 (stereo not drawn)	in the range around 550 nM
N[S+](=O)([O-])c1ccc(Cc2c(-c3ccc(F)c(-c4ccc(Cl)cc4)c3)nn(-c3nc(C(=O)O)cs3)c2CC2CC2)cc1F	< 100 nM
Cc1ccc(/C=C/c2cccc(-c3nn(-c4nc(C(=O)O)cs4)c(CC4CC4)c3Cc3ccc([SH+](N)[O-])c(F)c3)c2)s1 (stereo not drawn)	< 100 nM
N[S+](=O)([O-])c1ccc(Cc2c(-c3ccc(F)c(C4=CCC(C(F)(F)F)CC4)c3)nn(-c3nc(C(=O)O)cs3)c2CC2CC2)cc1F (stereo not drawn)	< 100 nM
CC(C)(C)c1ccc(-c2cccc(-c3nn(-c4nc(C(=O)O)cs4)c(CC4CC4)c3Cc3ccc([SH+](N)[O-])c(F)c3)c2)cc1 (stereo not drawn)	in the range around 550 nM
N[SH+]([O-])c1ccc(Cc2c(-c3cccc(C#Cc4ccc(C(F)(F)F)s4)c3)nn(-c3nc(C(=O)O)cs3)c2CC2CC2)cc1F (stereo not drawn)	in the range around 550 nM
N[SH+]([O-])c1ccc(Cc2c(-c3cccc(-c4cccc(Cl)c4)c3)nn(-c3nc(C(=O)O)cs3)c2CC2CC2)cc1F (stereo not drawn)	< 100 nM
Cc1ccc(C#Cc2cccc(-c3nn(-c4nc(B(O)O)cs4)c(CC4CC4)c3Cc3ccc([SH+](N)[O-])c(F)c3)c2)s1 (stereo not drawn)	in the range around 29000 nM
Cc1ccc([C@H]2C[C@@H](c3cccc(-c4nn(-c5nc(C(=O)O)cs5)c(CC5CC5)c4Cc4ccc([SH+](N)[O-])c(F)c4)c3)C2)s1 (stereo partly drawn)	< 100 nM
N[SH+]([O-])c1ccc(Cc2c(-c3cccc(C#Cc4ccc(Cl)s4)c3)nn(-c3nc(C(=O)O)cs3)c2CC2CC2)cc1F (stereo not drawn)	< 100 nM
Cc1cnc(C#Cc2cccc(-c3nn(-c4nc(C(=O)O)cs4)c(CC4CC4)c3Cc3ccc([SH+](N)[O-])c(F)c3)c2)o1 (stereo not drawn)	< 100 nM
Cc1cc(C)cc(-c2cc(-c3nn(-c4nc(C(=O)O)cs4)c(CC4CC4)c3Cc3ccc([SH+](N)[O-])c(F)c3)ccc2F)c1 (stereo not drawn)	in the range around 550 nM
Cc1ccc(C#Cc2cc(-c3nn(-c4nc(C(=O)O)cs4)c(CCC4CC4)c3Cc3ccc([SH+](N)[O-])c(F)c3)ccc2F)s1 (stereo not drawn)	< 100 nM
Cc1ccc(C#Cc2cccc(-c3nn(-c4nc(C(=O)O)cs4)c(CC4CC4)c3Cc3ccc([SH+](N)[O-])c(F)c3)c2)s1 (stereo not drawn)	< 100 nM
N[S+](=O)([O-])c1ccc(Cc2c(-c3ccc(F)c(-c4cc(Cl)cc(Cl)c4)c3)nn(-c3nc(C(=O)O)cs3)c2CC2CC2)cc1F	in the range around 550 nM
CC(C)c1cccc(-c2cccc(-c3nn(-c4nc(C(=O)O)cs4)c(CC4CC4)c3Cc3ccc([SH+](N)[O-])c(F)c3)c2)c1 (stereo not drawn)	< 100 nM

From ChEMBL document CHEMBL5728348, “1 H-pyrazol-1-yl-thiazoles as inhibitors of lactate dehydrogenase and methods of use thereof” (2021)
